According to US20150296788A1, “PESTICIDALLY ACTIVE TRICYCLIC PYRIDYL DERIVATIVES” (SYNGENTA PARTICIPATIONS AG, priority 2012, published 2015):

Tests used:
Assay type in all cases: in vivo
[1] = system: Frankliniella occidentalis (Western Flower Thrips); experiment: Activity against Frankliniella occidentalis (western flower thrips), leaf disc, feeding/residual contact, preventative; details: foliar, 168 h, sunflower leaf discs sprayed, mixed-age population, 7 DAT
Experimental: Activity Against Frankliniella occidentalis (Western Flower Thrips)
(Mixed Population, Feeding/Residual Contact Activity, Preventative)
Sunflower leaf discs are placed on agar in a 24-well microtiter plate and sprayed with test solutions. After drying, the leaf discs are infested with a Frankliniella population of mixed ages. After an incubation period of 7 DAT, samples are checked for mortality and special effects (e.g. phytotoxicity).

[2] = system: Myzus persicae (Green Peach Aphid); experiment: Activity against Myzus persicae (green peach aphid), leaf disc, feeding/residual contact, preventive; details: foliar, 144 h, sunflower leaf discs sprayed, mixed-age aphid population, 6 days incubation
Experimental: Activity Against Myzus persicae (Green Peach Aphid)
(Mixed Population, Feeding/Residual Contact Activity, Preventive)
Sunflower leaf discs were placed on agar in a 24-well microtiter plate and sprayed with test solutions. After drying, the leaf discs were infested with an aphid population of mixed ages. After an incubation period of 6 days, samples were checked for mortality.

[3] = system: Bemisia tabaci (Cotton White Fly); experiment: Activity against Bemisia tabaci (cotton white fly), leaf disc, feeding/residual contact, preventive; details: foliar, 144 h, cotton leaf discs sprayed, 12 to 18 adults, 6 days after infestation
Experimental: Activity Against Bemisia tabaci (Cotton White Fly)
(Feeding/Residual Contact Activity, Preventive)
Cotton leaf discs were placed on agar in a 24-well microtiter plate and sprayed with test solutions. After drying, the leaf discs were infested with 12 to 18 adults. After an incubation period of 6 days after infestation, samples were checked for mortality and special effects (e.g. phytotoxicity).

CN1c2ccc(-c3cnn(-c4cccnc4)c3)nc2-c2ncncc2S1(=O)=O [Compound 1.003, 9-methyl-6-(1-pyridin-3-yl-1H-pyrazol-4-yl)-9H-10-thia-2,4,5,9-tetraaza-phenanthrene 10,10-dioxide]
mortality at 200 ppm [1]: > 80% | mortality at 200 ppm [2]: > 80%

CN1c2ccc(-c3cnn(-c4cccnc4)c3)nc2-c2[nH]ncc2S1(=O)=O [Compound 1.004, 5-methyl-8-(1-pyridin-3-yl-1H-pyrazol-4-yl)-1,5-dihydro-4-thia-1,2,5,9-tetraaza-cyclopenta[a]naphthalene 4,4-dioxide]
mortality at 200 ppm [1]: > 80% | mortality at 200 ppm [3]: > 80% | mortality at 200 ppm [2]: > 80%

c1cncc(-n2cc(-c3ccc4c(n3)-c3ncncc3CC4)cn2)c1 [Compound 1.001, 9-[1-(3-pyridyl)pyrazol-4-yl]-5,6-dihydropyrido[3,2-h]quinazoline]
mortality at 200 ppm [3]: > 80% | mortality at 200 ppm [2]: > 80%

c1cncc(-n2cc(-c3ccc4c(n3)-c3n[nH]cc3CC4)cn2)c1 [Compound 1.002, 8-[1-(3-pyridyl)pyrazol-4-yl]-4,5-dihydro-2H-pyrazolo[4,3h]quinoline]
mortality at 200 ppm [3]: > 80% | mortality at 200 ppm [2]: > 80%
